Measured values published in patent publication US9266834B2, “1, 4-disubstituted 3-cyano-pyridone derivatives and their use as positive allosteric modulators of MGLUR2-receptors” (JANSSEN PHARMACEUTICALS, INC., priority 2006, dated 2016).

Columns and labels:
human mGluR2 receptor = target: T1, human mGluR2 receptor (Homo sapiens, UniProt Q14416); experiment: [35S]GTPγS binding assay (GTPγS-PAM): positive allosteric modulation in presence of glutamate at EC25, membranes from transfected CHO cells; assay type: biochemical; conditions: in presence of mGluR2 agonist glutamate at predetermined EC25 concentration, averages of duplicate values of 11-concentration response curves, read-out: GTPgS - hR2 PAM pEC50 (converted)
T1 construct: expressed in transfected cells; host or cells: CHO cells (membrane preparation)
T1 sequence (Q14416 19-872): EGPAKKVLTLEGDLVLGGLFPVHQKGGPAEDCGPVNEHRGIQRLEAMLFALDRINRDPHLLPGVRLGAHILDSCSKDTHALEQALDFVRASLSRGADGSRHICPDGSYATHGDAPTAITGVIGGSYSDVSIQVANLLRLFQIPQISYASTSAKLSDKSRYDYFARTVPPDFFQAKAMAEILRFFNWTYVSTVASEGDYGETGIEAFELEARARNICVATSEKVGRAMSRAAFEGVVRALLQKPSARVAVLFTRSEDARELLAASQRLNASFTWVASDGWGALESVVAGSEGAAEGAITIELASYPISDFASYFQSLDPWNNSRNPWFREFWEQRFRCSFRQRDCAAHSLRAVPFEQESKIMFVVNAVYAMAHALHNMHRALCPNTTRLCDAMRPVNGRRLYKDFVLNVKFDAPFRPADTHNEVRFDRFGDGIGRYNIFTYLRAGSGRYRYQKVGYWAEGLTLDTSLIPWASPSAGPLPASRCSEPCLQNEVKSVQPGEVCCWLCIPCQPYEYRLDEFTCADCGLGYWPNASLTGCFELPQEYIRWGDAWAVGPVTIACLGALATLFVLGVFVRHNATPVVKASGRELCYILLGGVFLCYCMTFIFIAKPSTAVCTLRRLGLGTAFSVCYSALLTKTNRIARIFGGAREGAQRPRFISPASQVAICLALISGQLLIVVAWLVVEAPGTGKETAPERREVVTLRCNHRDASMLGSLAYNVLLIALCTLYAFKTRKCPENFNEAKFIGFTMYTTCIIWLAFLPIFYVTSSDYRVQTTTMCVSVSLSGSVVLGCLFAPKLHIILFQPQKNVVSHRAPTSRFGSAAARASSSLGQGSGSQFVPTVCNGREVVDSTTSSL
Procedure, shortened: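 Membranes came from butyrate-stimulated CHO cells expressing human mGluR2, used at 15 μg/well in HEPES pH 7.4 with 100 mM NaCl, 3 mM MgCl2, 50 μM GDP and saponin. Compound (0.3 nM-50 μM, 11 concentrations) plus glutamate at EC25 was preincubated 30 min at 30° C., then 0.1 nM [35S]GTPγS was added for 30 min. Filter-bound radioactivity was counted, nonspecific binding was taken with 10 μM GTP, and curves were fitted by four-parameter logistic.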

| SMILES | melting point [°C] | EC50 (human mGluR2 receptor) [nM] |
| --- | --- | --- |
| CC(C)CCn1ccc(OCCN(C)Cc2cccc(F)c2)c(C#N)c1=O [1-293] | 209 | 2510 |
| N#Cc1c(-c2ccc(OC(F)(F)F)cc2)ccn(CC2CCCC2)c1=O [1-007] | 159 | 398 |
| CCCC(C)n1ccc(-c2cccs2)c(C#N)c1=O (stereo not shown) [1-079] | 103 | 5010 |
| CNc1ccc(-c2ccn(CCC(C)C)c(=O)c2C#N)cc1 [1-171] | 189 | 501 |
| CN(c1ccn(Cc2ccc(OC(F)(F)F)cc2)c(=O)c1C#N)C1CCN(Cc2ccccc2)CC1 [3-013] | 211 | 3980 |
| CC(C)CCn1ccc(-c2cccs2)c(C#N)c1=O [1-082] | 123 | 2000 |
| CC(C)CCn1ccc(C(=O)N2CCN(c3ncccn3)CC2)c(C#N)c1=O [2-037] | 223 | 1000 |
| CC(C)CCn1ccc(OCc2cccc(OC(F)(F)F)c2)c(C#N)c1=O [1-279] | 116 | 398 |
| CC(C)CCn1ccc(N2CC(OCc3ccc(OC(F)(F)F)cc3)C2)c(C#N)c1=O [5-008] | 102 | 251 |
| CC(C)CCn1ccc(N2CCC(Nc3ccccc3)C(C)C2)c(C#N)c1=O (stereo not shown) [4-043] | 138 | 501 |
| CC(C)CCn1ccc(OC2Cc3ccccc3C2)c(C#N)c1=O [1-288] | 169 | 1000 |
| CC(C)CCn1ccc(N2CCc3c(n(C)c4ccc(F)cc34)C2)c(C#N)c1=O [5-040] | 111 | 316 |
| CC(=O)NCCOc1ccc(-c2ccn(CCC(C)C)c(=O)c2C#N)cc1 [1-128] | 107 | 3160 |
| CC(C)CCn1ccc(-c2ccc(OCC3CC3)c(Cl)c2)c(C#N)c1=O [1-134] | 294 | 79.4 |
| CN(Cc1ccccc1)C1CCN(c2ccn(Cc3ccc(OC(F)(F)F)cc3)c(=O)c2C#N)CC1 [4-049] | 138 | 200 |
| CC(C)CCn1ccc(-c2ccc(OCC(F)(F)F)c(Cl)c2)c(C#N)c1=O [1-123] | 189 | 158 |
| CC(C)CCn1ccc(-c2ccc(OCc3cccc(C#N)c3)cc2)c(C#N)c1=O [1-151] | 154 | 39.8 |
| CCCCn1ccc(-c2cccs2)c(C#N)c1=O [1-059] | 103 | 5010 |
| CC(C)CCn1ccc(-c2ccc(OCc3cccnc3)cc2)c(C#N)c1=O [1-158] | 142 | 501 |
| CC(C)CCn1ccc(OCc2ccccc2)c(C#N)c1=O [1-275] | 174 | 1260 |
| CC(C)CCn1ccc(OCc2ccc(CN3CCOCC3)cc2)c(C#N)c1=O [1-292] | 154 | 1260 |
| CC(C)CCn1ccc(-c2ccc(Oc3ccc(C#N)cc3)cc2)c(C#N)c1=O [1-152] | 193 | 100 |
| N#Cc1c(-c2ccc(OCCN3CCOCC3)cc2)ccn(Cc2ccc(OC(F)(F)F)cc2)c1=O [1-037] | 184 | 2000 |

| SMILES | melting point [°C] | EC50 (human mGluR2 receptor) [nM] |
| --- | --- | --- |
| CC(C)CCn1ccc(-c2ccc(CC#N)cc2)c(C#N)c1=O [1-254] | 122 | 2510 |
| CC(C)CCn1ccc(-c2ccc(OCc3ccc(Cl)nc3)cc2)c(C#N)c1=O [1-164] | 165 | 158 |
| N#Cc1c(N2CCN(CCc3ccccc3)CC2)ccn(Cc2ccc(OC(F)(F)F)cc2)c1=O [2-043] | 110 | 251 |
| N#Cc1c(-c2ccccc2)ccn(CC2CCCCC2)c1=O [1-009] | 149 | 1580 |
| COCc1cccc(-c2ccn(CCC(C)C)c(=O)c2C#N)c1 [1-107] | 67 | 3160 |
| CCCCn1ccc(-c2ccc(OC(F)(F)F)cc2)c(C#N)c1=O [1-055] | 123 | 1260 |
| CC(C)CCn1ccc(-c2ccc(OCc3ccccc3)c(F)c2)c(C#N)c1=O [1-148] | 173 | 50.1 |
| CCC(C)Oc1ccc(-c2ccn(CCC(C)C)c(=O)c2C#N)cc1F (stereo not shown) [1-115] | 154 | 100 |
| COc1ccc(CCc2ccn(CCC(C)C)c(=O)c2C#N)cc1 [1-265] | 88 | 1260 |
| N#Cc1c(-c2ccc(CN3CCCCC3)cc2)ccn(Cc2ccc(OC(F)(F)F)cc2)c1=O [1-031] | 167 | 2510 |
| COc1cc(-c2ccn(CCC(C)C)c(=O)c2C#N)ccc1N1CCOCC1 [1-225] | 151 | 2000 |
| CC(C)CCn1ccc(-c2ccc(OCc3ccccc3)c(Cl)c2)c(C#N)c1=O [1-150] | 177 | 79.4 |
| CC(C)CCn1ccc(-c2ccc(CN(C)Cc3ccncc3)cc2)c(C#N)c1=O [1-211] | 142 | 631 |
| CCCCn1ccc(N2CCN(Cc3ccc(OCC4CC4)c(Cl)c3)CC2)c(C#N)c1=O [2-003] | 134 | 158 |
| CC(C)CCn1ccc(-c2ccc(OCc3cccc(Cl)c3)cc2)c(C#N)c1=O [1-149] | 120 | 50.1 |
| CC(C)CCn1ccc(-c2ccc(OC(F)(F)F)cc2)c(C#N)c1=O [1-120] | 122 | 501 |
| CC(C)CCn1ccc(-c2ccc(OC(C)C)cc2)c(C#N)c1=O [1-111] | 129 | 316 |
| N#Cc1c(-c2ccc(CCCO)cc2)ccn(Cc2ccc(OC(F)(F)F)cc2)c1=O [1-040] | 180 | 200 |
| CC(C)CCn1ccc(-c2ccc(NCc3ccc(F)cc3)cc2)c(C#N)c1=O [1-200] | 162 | 79.4 |
| COc1ccccc1-c1ccn(CC2CCCCC2)c(=O)c1C#N [1-011] | 60 | 2000 |
| CC(C)CCn1ccc(-c2ccc(O)cc2)c(C#N)c1=O [1-097] | 210 | 1580 |
| CC(C)CCn1ccc(-c2ccc(Oc3cccnc3)cc2)c(C#N)c1=O [1-155] | 132 | 501 |
| Cc1ccc(-c2ccn(CCC(C)C)c(=O)c2C#N)cc1 [1-085] | 102 | 794 |

| SMILES | melting point [°C] | EC50 (human mGluR2 receptor) [nM] |
| --- | --- | --- |
| CSc1ccc(-c2ccn(CCC(C)C)c(=O)c2C#N)cc1 [1-256] | 128 | 158 |
| COc1ccc(-c2ccn(CCC(C)C)c(=O)c2C#N)cc1Cl [1-112] | 149 | 316 |
| N#Cc1c(-c2cccs2)ccn(CC2CCCCC2)c1=O [1-008] | 148 | 251 |
| COc1ccc(Oc2ccn(CCC(C)C)c(=O)c2C#N)cc1 [1-282] | 153 | 794 |
| CC(C)CCn1ccc(N2CCC(N(C)Cc3ccc(C(F)(F)F)cc3)CC2)c(C#N)c1=O [4-029] | 91 | 126 |
| N#Cc1c(-c2ccc(CN3CCOCC3)cc2)ccn(Cc2ccc(OC(F)(F)F)cc2)c1=O [1-033] | 97 | 2510 |
| COc1ccc(-c2ccn(CCC(C)C)c(=O)c2C#N)cc1F [1-114, 3-cyano-4-(3-fluoro-4-methoxyphenyl)-1-(3-methylbutyl)pyridine-2(1)-one] | 133 | 1000 |
| CC(C)CCn1ccc(N2CCC(CCOc3ccc(F)cc3)CC2)c(C#N)c1=O [4-019] | 100 | 79.4 |
| CC(C)CCn1ccc(-c2ccc(OCc3ccncc3)cc2F)c(C#N)c1=O [1-162] | 156 | 398 |
| COc1ccc(-c2ccn(CCC(C)C)c(=O)c2C#N)c(F)c1 [1-113, 3-cyano-4-(2-fluoro-4-methoxyphenyl)-1-(3-methylbutyl)pyridine-2(1H)-one] | 65 | 631 |
| CCCCn1ccc(-c2ccc(OCc3cccc(C)n3)cc2)c(C#N)c1=O [1-063] | 102 | 1000 |
| N#Cc1c(N2CCC(c3ccccc3)CC2)ccn(Cc2ccc(OC(F)(F)F)cc2)c1=O [4-062] | 139 | 39.8 |
| CC(C)CCn1ccc(-c2ccc(N3CCC(O)CC3)cc2)c(C#N)c1=O [1-220] | 213 | 1260 |
| N#Cc1c(N2CCN(Cc3ccc(F)c(F)c3)CC2)ccn(Cc2ccc(F)cc2)c1=O [2-051] | 239 | 3160 |
| CC(C)CCn1ccc(N2CCC3Oc4ccccc4OC3C2)c(C#N)c1=O (stereo not shown) [5-037] | 217 | 398 |
| Cc1ccc(Cn2ccc(-c3cccs3)c(C#N)c2=O)cc1 [1-019] | 118 | 794 |
| CCOC(=O)c1ccc(-c2cccc(COc3ccn(CCC(C)C)c(=O)c3C#N)c2)cc1 [1-290] | 148 | 158 |
| CC(C)CCn1ccc(N2CCC(c3coc4cc(F)ccc34)CC2)c(C#N)c1=O [4-039] | 123 | 39.8 |
| CC(C)CCn1ccc(-c2ccc(C(=O)N(C)Cc3ccccc3)cc2)c(C#N)c1=O [1-245] | 135 to 140 | 794 |
| N#Cc1c(N2CCN(CC(=O)c3ccccc3)CC2)ccn(Cc2ccc(OC(F)(F)F)cc2)c1=O [2-046] | 92 | 3160 |
| CC(C)CCn1ccc(-c2ccc(C(=O)N3CCN(Cc4ccc(OC(F)(F)F)c(Cl)c4)CC3)cc2)c(C#N)c1=O [1-247] | 217 | 398 |
| COc1cccc(COc2ccc(-c3ccn(CCC(C)C)c(=O)c3C#N)cc2)c1 [1-144] | 100 | 63.1 |
